Measurements: ChEMBL document CHEMBL3351419, “Orally bioavailable 6-chloro-7-methoxy-4(1H)-quinolones efficacious against multiple stages of Plasmodium” (J Med Chem, 2014)
≈ marks a conversion by molar mass, not a printed value.

Tests used:
Plasmodium falciparum [1] = assay: Antimalarial activity against multi-drug-resistant Plasmodium falciparum W2 infected in human type A+ erythrocytes assessed as growth inhibition after 72 hrs by SYBR Green I assay; assay type: functional, organism-based; conditions: W2, 72 h
Plasmodium falciparum [2] = assay: Antimalarial activity against multi-drug-resistant Plasmodium falciparum TM90-C2B infected in human type A+ erythrocytes assessed as growth inhibition after 72 hrs by SYBR Green I assay; assay type: functional, organism-based
[3] = Resistance index, ratio of EC50 for multi-drug-resistant Plasmodium falciparum TM90-C2B infected in human type A+ erythrocytes to EC50 for multi-drug-resistant Plasmodium falciparum W2 infected in human type A+ erythrocytes; assay type: functional
J774 = assay: Cytotoxicity against mouse J774 cells after 72 hrs by CellTiter 96 assay; assay type: cell-based; conditions: J774, 72 h
[4] = Cytotoxicity index, ratio of EC50 for mouse J774 cells to EC50 for multi-drug-resistant Plasmodium falciparum TM90-C2B infected in human type A+ erythrocytes; assay type: toxicity, cell-based; conditions: read-out: Ratio EC50
Plasmodium berghei [5] = assay: animal or person; conditions: ANKA, in Mus musculus, read-out: INH
Plasmodium berghei [6] = assay: animal or person; conditions: ANKA, in Mus musculus, read-out: INH; remark: listed apart in the source
Plasmodium berghei [7] = assay: Antimalarial activity against Plasmodium berghei ANKA expressing GFP infected in Balb/c mouse assessed as inhibition of parasitemia at 50 mg/kg, po qd administered as single dose on day 3 to 5 of exposure measured on day 6 post exposure by in vivo thomson test relative to control; assay type: functional
Plasmodium berghei [8] = assay: Antimalarial activity against Plasmodium berghei ANKA expressing GFP infected in Balb/c mouse assessed as inhibition of parasitemia at 10 mg/kg, po qd administered as single dose on day 3 to 5 of exposure measured on day 6 post exposure by in vivo thomson test relative to control; assay type: functional
Plasmodium berghei [9] = assay: Antimalarial activity against Plasmodium berghei ANKA expressing GFP infected in Balb/c mouse assessed as mouse survival at 50 mg/kg, po qd administered as single dose on day 3 to 5 of exposure measured on day 6 post exposure by in vivo thomson test relative to control; assay type: functional
Plasmodium berghei [10] = assay: Antimalarial activity against Plasmodium berghei ANKA expressing GFP infected in Balb/c mouse assessed as mouse survival at 10 mg/kg, po qd administered as single dose on day 3 to 5 of exposure measured on day 6 post exposure by in vivo thomson test relative to control; assay type: functional
Plasmodium berghei [11] = assay: Antimalarial activity against Plasmodium berghei ANKA expressing GFP infected in Balb/c mouse assessed as mouse cured from disease at 50 mg/kg, po qd administered as single dose on day 3 to 5 of exposure measured on day 30 post exposure by in vivo thomson test relative to control; assay type: functional
Plasmodium berghei [12] = assay: Antimalarial activity against Plasmodium berghei ANKA expressing GFP infected in Balb/c mouse assessed as mouse cured from disease at 10 mg/kg, po qd administered as single dose on day 3 to 5 of exposure measured on day 30 post exposure by in vivo thomson test relative to control; assay type: functional
[13] = octanol/water, pH 7.4
Liver microsome = assay: Half life in human liver microsomes at 1 uM by LC-MS analysis; assay type: ADME
[14] = Aqueous solubility of the compound at pH 7.4; assay type: physicochemical; conditions: buffer

Compound | EC50 (Plasmodium falciparum [1]) [nM] | EC50 (Plasmodium falciparum [2]) [nM] | Ratio EC50 [3] | EC50 (J774) [nM] | selectivity ratio [4] | inhibition in vivo at 50 mg/kg (Plasmodium berghei [5]) [%] | inhibition in vivo at 50 mg/kg (Plasmodium berghei [6]) [%] | inhibition in vivo at 50 mg/kg (Plasmodium berghei [7]) [%] | inhibition in vivo at 10 mg/kg (Plasmodium berghei [8]) [%] | mouse survival time at 50 mg/kg (Plasmodium berghei [9]) [days] | survival time at 10 mg/kg (Plasmodium berghei [10]) [days] | Activity (Plasmodium berghei [11]) [%] | Activity (Plasmodium berghei [12]) [%] | logD [13] | t1/2 (Liver microsome) [h] | solubility kinetic [14] [µM]
COc1cc2[nH]c(C)c(-c3ccc(F)cc3F)c(=O)c2cc1Cl | 26.3 | 44.6 | 1.7 | > 29800 | > 668 | 44.3 | 29.1 | – | – | – | – | – | – | – | – | –
COc1cc2[nH]c(C)c(-c3ccc(Oc4ccccc4)cc3)c(=O)c2cc1Cl | 2.4 | 1.31 | 0.55 | > 25500 | > 19500 | 83.9 | 69 | 70 | 87 | 4 | 4 | 0 | 0 | – | – | –
CC(C)(C)NCC(O)COc1cccc2c1CC(O)C(O)C2 (centres undefined) [NADOLOL] | – | – | – | – | – | – | – | – | – | – | – | – | – | 0.68 | – | –
COc1ccc(-c2c(C)[nH]c3cc(OC)c(Cl)cc3c2=O)cc1 | 54 | 11.3 | 0.21 | > 30300 | > 2690 | 53.6 | 26.9 | – | – | – | – | – | – | – | – | –
COc1cc2[nH]c(C)c(-c3ccc(C(F)(F)F)cc3)c(=O)c2cc1Cl | 6.25 | 5.98 | 0.96 | > 27200 | > 4550 | – | – | 97 | 92 | 4 | 3 | 0 | 0 | – | – | –
COc1cc2[nH]c(C)c(-c3ccc(CO)cc3)c(=O)c2cc1Cl | 154 | 93.9 | 0.61 | > 30300 | > 323 | – | – | < 1 | < 1 | 0 | 0 | – | – | – | – | –
COc1cc2[nH]c(C)c(-c3ccc(-c4ccccc4)cc3)c(=O)c2cc1Cl | 1.78 | 4.33 | 2.43 | > 26600 | > 6140 | 85.7 | 61 | 79 | 80 | 0 | 0 | – | – | – | – | –
C[C@H]1[C@H](OC(=O)CCC(=O)O)O[C@@H]2O[C@@]3(C)CC[C@H]4[C@H](C)CC[C@@H]1[C@@]24OO3 [ARTESUNATE] | – | – | – | – | – | 97 | 81 | – | – | – | – | – | – | – | – | –
COc1cc2[nH]c(C)c(-c3ccc(N4CCN(C)CC4)nc3)c(=O)c2cc1Cl | 1580 | 536 | 0.34 | > 25100 | > 46.8 | 0 | 0 | – | – | – | – | – | – | – | – | –
COc1cc2[nH]c(C)c(-c3ccc(COc4ccc(OC(F)(F)F)cc4)cc3)c(=O)c2cc1Cl | 7.74 | 1.59 | 0.21 | > 20400 | > 12800 | – | – | – | – | – | – | – | – | 4.4 | 2.15 | –
COc1cc2[nH]c(C)c(-c3ccco3)c(=O)c2cc1Cl | 34.2 | 8.43 | 0.25 | > 34500 | > 4100 | – | – | < 1 | < 1 | 0 | 0 | – | – | – | – | –
COc1cc2[nH]c(C)c(-c3ccc(N(C)C)nc3)c(=O)c2cc1Cl | 748 | 91.1 | 0.12 | > 29100 | > 319 | – | – | 22 | < 1 | 0 | 0 | – | – | – | – | –
O=C1C(O)=C([C@H]2CC[C@H](c3ccc(Cl)cc3)CC2)C(=O)c2ccccc21 [ATOVAQUONE] | – | 18400 | – | – | – | – | – | – | – | – | – | 0 | – | – | – | –
COc1cc2[nH]c(C)c(-c3ccc(OC(C)C)cc3)c(=O)c2cc1Cl | 58.4 | 12.6 | 0.22 | > 27900 | > 2220 | 41.4 | 26.8 | – | – | – | – | – | – | – | – | –
CCCSc1ccc2nc(NC(=O)OC)[nH]c2c1 [ALBENDAZOLE] | – | – | – | – | – | – | – | – | – | – | – | – | – | – | – | 6.1 (≈ 1.62 µg/mL)
COc1cc2[nH]c(C)c(-c3ccc(OC(F)(F)F)cc3)c(=O)c2cc1Cl | 7.72 | 7.76 | 1.01 | > 26100 | > 3360 | 60 | 28.8 | – | – | – | – | – | – | – | – | –
COc1cc2[nH]c(C)c(-c3ccc(Oc4ccc(OC(F)(F)F)cc4)cc3C)c(=O)c2cc1Cl | 0.312 | 0.646 | 2.07 | > 20400 | > 31600 | – | – | 98 | 99 | – | 23 | – | 100 | 2.1 | – | < 2

Compound | EC50 (Plasmodium falciparum [1]) [nM] | EC50 (Plasmodium falciparum [2]) [nM] | Ratio EC50 [3] | EC50 (J774) [nM] | selectivity ratio [4] | inhibition in vivo at 50 mg/kg (Plasmodium berghei [5]) [%] | inhibition in vivo at 50 mg/kg (Plasmodium berghei [6]) [%] | inhibition in vivo at 50 mg/kg (Plasmodium berghei [7]) [%] | inhibition in vivo at 10 mg/kg (Plasmodium berghei [8]) [%] | mouse survival time at 50 mg/kg (Plasmodium berghei [9]) [days] | survival time at 10 mg/kg (Plasmodium berghei [10]) [days] | Activity (Plasmodium berghei [11]) [%] | Activity (Plasmodium berghei [12]) [%] | logD [13] | t1/2 (Liver microsome) [h] | solubility kinetic [14] [µM]
Cn1c(=O)c2[nH]cnc2n(C)c1=O.O [THEOPHYLLINE] | – | – | – | – | – | – | – | – | – | – | – | – | – | -5 | – | –
C(=C\c1ccccc1)/CN1CCN(C(c2ccccc2)c2ccccc2)CC1 [CINNARIZINE] | – | – | – | – | – | – | – | – | – | – | – | – | – | 5.68 | – | –
COc1cc2[nH]c(C)c(-c3ccc(C(C)C)cc3)c(=O)c2cc1Cl | 6.65 | 2.67 | 0.4 | > 29300 | > 11000 | – | – | – | – | – | – | – | – | – | – | –
COc1cc2[nH]c(C)c(-c3ccc(F)cc3)c(=O)c2cc1Cl | 20.8 | 35.8 | 1.72 | > 31500 | > 879 | – | – | 30 | 63 | 1 | 1 | 0 | 0 | – | – | –
CCc1ccccc1-c1c(C)[nH]c2cc(OC)c(Cl)cc2c1=O | 61.7 | 160 | 2.59 | 16200 | 102 | – | – | – | – | – | – | – | – | – | – | –
COc1cc2[nH]c(C)c(-c3c(C)noc3C)c(=O)c2cc1Cl | 1060 | 629 | 0.59 | > 31400 | > 49.9 | – | – | – | – | – | – | – | – | – | – | –
COc1cc2[nH]c(C)c(-c3ccccc3OC(F)(F)F)c(=O)c2cc1Cl | 443 | 1910 | 4.32 | > 30200 | > 15.8 | – | – | – | – | – | – | – | – | – | – | –
COc1cc2[nH]c(C)c(-c3ccoc3)c(=O)c2cc1Cl | 13.3 | 1.85 | 0.14 | > 34500 | > 18600 | – | – | – | – | – | – | – | – | – | – | –
COc1cc2[nH]c(C)c(-c3ccc(C)cc3)c(=O)c2cc1Cl | 24.5 | 7.33 | 0.3 | > 31900 | > 4350 | – | – | – | – | – | – | – | – | – | – | –
CCOc1cc(-c2c(C)[nH]c3cc(OC)c(Cl)cc3c2=O)ccc1F | 194 | 25.8 | 0.13 | > 27600 | > 1070 | – | – | – | – | – | – | – | – | – | – | –
COc1cc2[nH]c(C)c(-c3c(C)cc(C)cc3C)c(=O)c2cc1Cl | 46 | 46.3 | 1.01 | 2990 | 64.6 | – | – | – | – | – | – | – | – | – | – | –
COc1cc2[nH]c(C)c(-c3ccc(C(C)=O)cc3)c(=O)c2cc1Cl | 777 | 48.4 | 0.06 | > 29300 | > 605 | – | – | – | – | – | – | – | – | – | – | –
COc1cc2[nH]c(C)c(-c3ccccc3C)c(=O)c2cc1Cl | 5.83 | 4.03 | 0.69 | > 31900 | > 7910 | 9 | – | 41 | 17 | 0 | 0 | – | – | – | – | –
COc1cc2[nH]c(C)c(-c3cc(C(F)(F)F)cc(C(F)(F)F)c3)c(=O)c2cc1Cl | 1680 | 449 | 0.27 | > 22900 | > 51.1 | – | – | – | – | – | – | – | – | – | – | –
COc1cc2[nH]c(C)c(-c3cccc4c3oc3ccccc34)c(=O)c2cc1Cl | 49 | 33.6 | 0.68 | > 25700 | > 765 | – | – | – | – | – | – | – | – | – | – | –
COc1cc2[nH]c(C)c(-c3ccc4c(c3)OCCO4)c(=O)c2cc1Cl | 173 | 91.9 | 0.53 | > 27900 | > 304 | – | – | – | – | – | – | – | – | – | – | –
